In brackets after ≈: the same amount, converted by molar mass.
Tests used:
[1] = system: P388; experiment: Cytotoxicity against mouse P388 cells; format: functional
[2] = system: A549; experiment: Cytotoxicity against human A549 cells; format: functional

Question: C=C[C@@]1(C)CC[C@H](/C(C)=C\CCC(=C)C)C[C@@H]1C(=C)C [INELEGANENE] was tested. Which GI50 [1] did it give?
Answer: 0.2 µg/mL (≈ 0.734 µM)

Question: What about the GI50 [2] of the same compound?
Answer: 3.63 µg/mL (≈ 13.3 µM)
